Experimental data reported in PMC6009935 (Journal of Enzyme Inhibition and Medicinal Chemistry, 2017).
Like-named read-outs stand apart in the source and are kept apart here.

Target: T1, DOR (Rattus norvegicus, UniProt P33533)
T1 construct: a: performed in rat whole brain membrane homogenates; from tissue; host or cells: Wistar rat whole brain membrane homogenate
Experiment: Radioligand competition binding with [3H]IleDelt II
Method: Tris-HCl, EGTA, NaCl, MgCl2 x 6H2O, GDP, the GTP analogue GTPγS, were purchased from Sigma-Aldrich (Budapest, Hungary). Fatty acid free bovine serum albumin (BSA) was purchased from Serva (Heidelberg, Germany). Naloxone was kindly provided by the company Endo Laboratories DuPont de Nemours (Wilmington, DE, USA). HS665 was provided by Schmidhammer’s group (University of Innsbruck, Austria). […]
purchased from Tocris Bioscience (Bristol, UK).
DMSO. All compounds were stored in 1 mM stock solution at -20 °C. The radiolabelled GTP analogue, [35S]GTPγS (specific activity: 1000 Ci/mmol) were purchased from Hartmann Analytic (Braunschweig, Germany). [3H]DAMGO (specific activity: 38.8 Ci/mmol),12 [3H]IleDelt II (specific activity: 19,6 Ci/mmol), [3H]WIN55,212-2 (specific activity: 13,1 Ci/mmol) and [3H]HS665 (specific activity: 36.62 Ci/mmol),3 were radiolabeled by the Laboratory of Chemical Biology group in BRC (Szeged, Hungary).
For membrane homogenate preparations male and female Wistar rats (250-300 g body weight) and male guinea pigs (~700 g body weight, LAL/HA/BR strain) were used. Rats were housed in the local animal house of BRC (Szeged, Hungary), while guinea pigs were housed in LAB-ÁLL Bt.
(Budapest, Hungary). All the animals were kept in a temperature controlled room (21-24 °C) under a 12:12 light and dark cycle and were provided with water and food ad libitum. All housing and experiments were conducted in accordance with the European Communities Council Directives (2010/63/EU) and the Hungarian Act for the Protection of Animals in Research (XXVIII.tv. 32.§).
The total number of animals as well as their suffering was minimized.
Rat and guinea pig brain membrane homogenate preparation for binding assays Rats and guinea pigs were decapitated and their brains were quickly removed. The brains were prepared for membrane preparation as previously described,4 and partly used for binding experiments and partly were further prepared for the [35S]GTPγS binding experiments. Briefly the brains were homogenized, centrifuged in ice-cold 50 mM Tris-HCl (pH 7.4) buffer and incubated at 37 °C for 30 min in a shaking water-bath. After incubation the centrifugation was repeated as described above and the final pellet was suspended in 50 mM Tris-HCl pH 7.4 buffer containing 0.32 M sucrose, and stored at -80 °C. For the [35S]GTPγS binding experiments the final pellet of rat […]
brain membrane homogenate was suspended in ice-cold TEM (Tris-HCl, EGTA, MgCl2) and stored at -80 °C for further use.
Radioligand competition binding experiments
Aliquots of frozen rat brain membrane homogenates were centrifuged (18 000 rpm, 20 min, 4 °C) to remove sucrose and the pellets were suspended in 50 mM Tris-HCl buffer (pH 7.4). Membranes containing 0.4-0.8 mg/mL of protein were incubated in a final volume of 1 mL in the presence of unlabeled 5, 10 and 9 in increasing concentrations (10-11-10-5 M) in the presence of the appropriate radioligand in ~1 nM concentrations at certain temperature and amount of time depending on the radioligand ([3H]DAMGO and [3H]IleDelt II: 35 °C for 45 min; [3H]HS665: 30 °C, 45 min; [3H]WIN55,212-2: 30 °C for 60 min). Experiments performed with [3H]HS665 where incubated […]
more kappa receptors than the rat brain), while the rest of the radioligands were incubated together with rat whole brain membrane homogenates. Additionally, in experiments performed with […]
increasing concentrations (10-11-10-5 M) together with 50 mM Tris/HCl, 2.5 mM EGTA, 5 mM MgCl2 and 0.5 mg/mL fatty acid free BSA (pH 7.4). The level of non-specific binding was […]
binding was determined in the absence of unlabeled compounds. The reaction was terminated by rapid filtration under vacuum (Brandel M24R Cell Harvester), and washed three times with 5 mL ice-cold 50 mM Tris-HCl or 50 mM Tris/HCl, 2.5 mM EGTA, 5 mM MgCl2, 0.5 % BSA (pH 7.4) in case of [3H]WIN55,212-2. The filtration was accomplished through Whatman GF/C ([3H]DAMGO, [3H]IleDelt II and [3H]HS665) or GF/B ([3H]WIN55,212-2) glass fibers. In case of […]

T1 sequence (P33533 whole entry): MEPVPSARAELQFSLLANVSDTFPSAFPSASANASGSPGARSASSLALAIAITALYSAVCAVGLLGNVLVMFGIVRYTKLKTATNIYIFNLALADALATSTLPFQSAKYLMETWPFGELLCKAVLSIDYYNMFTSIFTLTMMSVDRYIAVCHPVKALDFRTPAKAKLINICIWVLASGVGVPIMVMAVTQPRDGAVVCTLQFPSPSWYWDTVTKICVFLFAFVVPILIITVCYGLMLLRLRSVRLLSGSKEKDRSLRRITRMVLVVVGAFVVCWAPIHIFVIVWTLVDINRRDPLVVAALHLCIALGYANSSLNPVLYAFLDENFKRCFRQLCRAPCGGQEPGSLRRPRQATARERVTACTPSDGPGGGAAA

Compound | DOR binding affinity in words | logIC50 ± S.E.M., [3H]IleDelt II (DOR) (rat whole brain membrane homogenates, logarithm of IC50, negative sign printed) | Ki (rat whole brain membrane homogenates, Cheng-Prusoff) | IC50 (rat whole brain membrane homogenates, logarithm of IC50, negative sign printed, read-out: logIC50 ± S.E.M., [3H]IleDelt II (DOR) (converted)) | IC50 | Ki
Cc1c(C(=O)NC2CCNCC2)nn(-c2ccc(Cl)cc2Cl)c1-n1cccc1 [Compound 5] | did not bind | ambiguous |  |  |  | 
Cc1c(C(=O)NC2CCN(C(=O)[C@H](Cc3ccccc3)NC(=O)CNC(=O)[C@@H](C)NC(=O)[C@@H](N)Cc3ccc(O)cc3)CC2)nn(-c2ccc(Cl)cc2Cl)c1-n1cccc1 [Compound 9] | loss in affinity |  | 443 nM | 1290 nM |  | 
C[C@@H](NC(=O)[C@@H](N)Cc1ccc(O)cc1)C(=O)NCC(=O)N[C@@H](Cc1ccccc1)C(N)=O [Compound 10, Tyr-D-Ala-Gly-Phe-NH2, reference compound] | high affinity |  |  |  | 316 nM | 107 nM
